We go through one compound from patent publication US5952326A, “Tetralin and chroman derivatives useful in the treatment of asthma, arthritis and related diseases” (Pfizer Inc., priority 1997, dated 1999).

The structures appear in SMILES notation.

The assay concerns PAF (platelet activating factor) lethality. In words: PAF lethality assay procedure. Type of assay: in vivo, mice (CD1 males). As to conditions: Mus musculus, po, positive control, mice treated orally 45 minutes before i.v. PAF injection, approximate. The protocol:
To evaluate the compounds of the formula (I) in vivo, they are tested by the so-called PAF lethality assay procedure:
Mice: CD1 males, all approximately the same weight (approximately 26 grams), 12 per group.
Vehicle for oral drug dosing: EES (5% ethanol, 5% emulphor, 90% saline). Stored at room temperature.
Drugs: For routine screening at 50 mg/kg, 20 mg drug is dissolved in 4 ml EES, using sonication in a sonicator bath or grinding in a Ten Broeck grinder to dissolve drug if necessary. If solubility is still a problem, the drug is used as a suspension.
Vehicle for i.v. Injection: Saline with 2.5 mg/ml Bovine Serum Albumin (BSA, Sigma #A4378) and 0.05 mg/ml Propranolol (Sigma #P0884). Prepared fresh daily and kept at room temperature.
Platelet Activating Factor (PAF): A 10 microm stock solution is prepared by dissolving 1 mg PAF (Calbiochem #429460) in 0.18 ml ethanol. This is stored at -20° C. and is diluted in vehicle (see above) the day of use. The concentration of PAF used is calibrated so that when injected at 0.1 ml/10 grams body weight, it will kill approximately 80% of untreated controls. This is usually about […] (a 1 to 2034 dilution from stock). […]
45 minutes before PAF injection, mice are treated orally with drug using 0.1 ml/10 grams body weight. […] Results are expressed as percent mortality as compared to controls. […]

As a reminder, the ED50 is the dose at which the effect has come halfway, by size or by number of responders. A high value points to a need for a large dose. Consider `O=C1CCN(c2ccccc2)N1` [Phenidone], for which the ED50 was ~25 mg/kg.
